# Measured values from ChEMBL document CHEMBL1142439 (Bioorg Med Chem, 2008).
# Activity calls are given as the source filed them. No cut-off for these calls is given here.
# Columns and labels:
# Rattus norvegicus [1] = test: Decrease in dopamine release in Wistar rat striatal at 1 nmol/kg, sc after 90 mins; type: functional; design: scale not given: the % may be the effect or the level left
# Rattus norvegicus [2] = test: Decrease in dopamine release in Wistar rat striatal at 100 nmol/kg, po after 45 mins; type: functional; design: scale not given: the % may be the effect or the level left
# Rattus norvegicus [3] = test: Induction of locomotor activity in Wistar rat at 10 nmol/kg, sc; type: functional, organism-based
# Rattus norvegicus [4] = test: Decrease in dopamine release in Wistar rat striatal at 1 nmol/kg, sc after 6 hrs; type: functional; design: scale not given: the % may be the effect or the level left
# D(2) dopamine receptor = D(2) dopamine receptor (Homo sapiens, UniProt P14416); test: Agonist activity at human dopamine D2 receptor expressed in CHO cells assessed as inhibition of forskolin-stimulated cAMP production; type: functional, cell-based
# Rattus norvegicus [5] = test: Induction of rearing grooming in Wistar rat at 10 nmol/kg, sc; type: functional, organism-based
# Rattus norvegicus [6] = test: Decrease in dopamine release in Wistar rat striatal at 10 nmol/kg, sc after 90 mins; type: functional; design: scale not given: the % may be the effect or the level left
# Rattus norvegicus [7] = test: Induction of sniffing in Wistar rat at 10 nmol/kg, sc; type: functional, organism-based
# Rattus norvegicus [8] = test: Induction of penile grooming in Wistar rat at 10 nmol/kg, sc; type: functional, organism-based
# D(1A) dopamine receptor = D(1A) dopamine receptor (Homo sapiens, UniProt P21728); test: Agonist activity at human recombinant dopamine D1 receptor expressed in CHO cells assessed as stimulation of cAMP production; type: functional, cell-based
# Rattus norvegicus [9] = test: Induction of yawning in Wistar rat at 10 nmol/kg, sc; type: functional, organism-based
# D(1A) dopamine receptor, sequence (P21728 whole entry): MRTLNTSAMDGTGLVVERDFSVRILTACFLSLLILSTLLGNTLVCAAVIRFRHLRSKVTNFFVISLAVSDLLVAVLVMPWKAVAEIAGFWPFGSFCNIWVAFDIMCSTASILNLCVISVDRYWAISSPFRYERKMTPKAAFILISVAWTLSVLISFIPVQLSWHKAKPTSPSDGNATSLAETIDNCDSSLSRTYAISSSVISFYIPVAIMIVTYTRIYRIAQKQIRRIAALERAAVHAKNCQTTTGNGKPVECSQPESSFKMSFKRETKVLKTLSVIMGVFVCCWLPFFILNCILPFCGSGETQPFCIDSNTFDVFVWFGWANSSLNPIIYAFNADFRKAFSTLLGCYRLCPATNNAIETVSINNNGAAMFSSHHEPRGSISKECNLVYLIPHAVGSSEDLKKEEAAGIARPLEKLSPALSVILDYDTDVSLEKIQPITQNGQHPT
# D(2) dopamine receptor, sequence (P14416 whole entry): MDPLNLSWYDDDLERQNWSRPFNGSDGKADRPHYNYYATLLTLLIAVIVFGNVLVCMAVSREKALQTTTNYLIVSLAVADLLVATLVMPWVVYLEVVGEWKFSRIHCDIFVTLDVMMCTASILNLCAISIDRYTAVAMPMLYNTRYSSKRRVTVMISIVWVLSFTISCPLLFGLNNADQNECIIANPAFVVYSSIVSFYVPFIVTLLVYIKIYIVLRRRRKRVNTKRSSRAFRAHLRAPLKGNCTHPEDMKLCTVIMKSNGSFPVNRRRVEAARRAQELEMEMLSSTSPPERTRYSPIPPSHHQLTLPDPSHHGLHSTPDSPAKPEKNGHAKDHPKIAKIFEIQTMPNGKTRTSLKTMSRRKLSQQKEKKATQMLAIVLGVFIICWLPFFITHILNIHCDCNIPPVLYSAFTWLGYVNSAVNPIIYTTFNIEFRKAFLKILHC
smiles,measurement,setting,value
CCCN1CCC[C@@H]2Cc3c(ccc(O)c3O)C[C@H]21,Activity,Rattus norvegicus [1],20%
same,Activity,Rattus norvegicus [2],40%
same,Activity,Rattus norvegicus [3],Active
same,Activity,Rattus norvegicus [4],30%
same,EC50,D(2) dopamine receptor,0.65 nM
same,Activity,Rattus norvegicus [5],Active
same,Activity,Rattus norvegicus [6],30%
same,Activity,Rattus norvegicus [7],Active
same,Activity,Rattus norvegicus [8],Active
same,EC50,D(1A) dopamine receptor,25 nM
same,Activity,Rattus norvegicus [9],Active
